Test results from patent US5294605A, “Amphiphilic peptide compositions and analogues thereof” (The Scripps Research Institute, priority 1991, dated 1994).
“And” between values parts separate entries of the source, which are not always exact repeats. Equal entries are not always repeated. Where two headings read alike, the source gives them in different places. Ends that are not written are not given here.

Columns and labels:
Format in all cases: cell-based
[1] = tested on: E. coli ATCC 25922; experiment: Antibacterial assay, NCCLS M7-T2 microdilution (Example 15), MIC; settings: Table XI; Mueller Hinton broth, 16-20 hours 37° C., 1-5×10^5 CFUs/ml
Protocol: (§1) The procedure for the following antibacterial assay is based upon the guidelines of the National Committee for Clinical Laboratory Standards, Document M7-T2, Volume 8, No. 8, 1988.
(§2) Stock solutions of the following Peptides (SEQ ID NO:4) and (SEQ ID NO:64) through (SEQ ID NO:68) in accordance with the present invention are prepared at a concentration of 512 μg/ml in sterile deionized distilled water and stored at -70° C.
(§3) The stock peptide solution was diluted in serial dilutions (1:2) down the wells of a microtiter plate so that the final concentrations of peptides in the wells were 0.25, 0.50, 1, 2, 4, 8, 16, 32, 64, 128, and 256 μg/ml. 1-5×10^5 CFUs/ml of either S. aureus ATCC 25923, E. coli ATCC 25922, or P. aeruginosa ATCC 27853 were added to the wells in full strength Mueller Hinton broth (BBL 11443) from a mid-log culture. The inoculum is standarized spectrophotometrically at 600 nm and is verified by colony counts. […] Minimal inhibitory concentration is defined as the lowest concentration of peptide which produces a clear well in the microtiter plate.
(§4) For purposes of explanation of Table XI below, S is the MIC of the peptide against S. aureus, P is the MIC of the peptide against P. aeruginosa, and E is the MIC of the peptide against E. coli.

[2] = tested on: S. aureus ATCC 25923; experiment: as above; settings: Table XI; Mueller Hinton broth, 16-20 hours 37° C., 1-5×10^5 CFUs/ml
Protocol: as §1, §2, §3, §4

[3] = tested on: P. aeruginosa ATCC 27853; experiment: as above; settings: Table XI; Mueller Hinton broth, 16-20 hours 37° C., 1-5×10^5 CFUs/ml
Protocol: as §1, §2, §3, §4

[4] = tested on: Pseudomonas aeruginosa; experiment: Antimicrobial assay for deletion analogues (Example 10), MIC; settings: Table VII; 3.5×10^5 CFU/ml, 20 hours, LB medium
Protocol: (§5) For the deletion analogues of the parent peptide further described in Examples 11 and 12, antimicrobial assays were carried out in 96-well tissue culture plates. Each well was incubated with a given microorganism (Escherichia coli, Staphylococcus epidermidis, Pseudomonas aeruginosa, or Staphylococcus aureus) suspended in LB medium. Upon addition of the parent peptide or its deletion analogues (dissolved in 1×PBS<pH7.0), each well contained a final cell density of 1.3×10^5 colony forming units (CFU)/ml of E. coli, or 3.5×10^5 CFU/ml P.aeruginosa, or 3.9×10^5 CFU/ml S. Aureus or 3.0×10^5 CFU/ml S. epidermidis. The final peptide concentrations ranged from 1.5 μg/ml to greater than 100 μg/ml. Addition of peptide to the wells was defined as time zero. At twenty hours, the plates were placed in a Titertek Multiskan apparatus and the O.D. 620 determined. The plates as well as the initial innoculum were incubated at 37° C. Five wells per plate contained medium alone, whereas five others contained medium plus cells. These controls were used to eliminate the possibility of medium contamination, while providing a measure of uninhibited growth of the microorganisms. The degree of peptide activity was determined by comparing the deletion analogues with uninhibited growth of the control cells over a twenty-hour period. The effective growth inhibitation of the deletion analogues is listed in the examples and tables below.

[5] = tested on: Staphylococcus epidermidis; experiment: as above; settings: Table VII; 3.0×10^5 CFU/ml, 20 hours, LB medium
Protocol: as §5

[6] = tested on: Escherichia coli; experiment: as above; settings: Table VII; 1.3×10^5 CFU/ml, 20 hours, LB medium
Protocol: as §5

[7] = tested on: Staphylococcus aureus; experiment: as above; settings: Table VII; 3.9×10^5 CFU/ml, 20 hours, LB medium
Protocol: as §5

[8] = tested on: Staphylococcus epidermidis; experiment: Antimicrobial assay in 96-well plates, LB medium (Example 2), MIC; settings: Table I, 100 percent growth inhibition, 20 hours, 1.0×10^6 CFU/ml
[9] = tested on: Pseudomonas aeruginosa; settings: Table I; 100 percent growth inhibition, 20 hours, 1.0×10^6 CFU/ml, LB medium
Protocol: (§6) For the following Examples 3-9, antimicrobial assays were carried out in 96-well tissue culture plates. Each well was incubated with a given microorganism (Escherichia coli, Staphylococcus epidermidis, or Pseudomonas aeruginosa) suspended in LB medium. Upon the addition of the parent peptide having the structural formula hereinabove described, or its substitution analogues, or of Peptide I (dissolved in 1 X PBS, pH 7.0) each well contained a final cell density of 1.0×10^6 colony forming units (CFU)/ml. The final peptide concentrations ranged from 1.5 μg/ml to greater than 100 μg/ml.
(§7) Addition of peptides to the wells was defined as time zero. At twenty hours, the plates were placed in a Titertek Multiskan apparatus and the O.D.620 determined. The plates as well as the initial innoculum were incubated at 37° C.
(§8) Five wells per plate contained media alone, while five others contained medium plus cells. These controls were used to eliminate the possibility of media contamination while providing a measure of uninhibited growth of the microorganisms.
(§9) The degree of peptide activity was determined by comparing the substitution analogues with uninhibited growth of the control cells over a twenty-hour period.
(§10) as hereinabove described and analogues thereof wherein a methionine sulfoxide residue was substituted for various amino acid residues of the parent peptide were prepared as hereinabove described in Example 1 and tested for minimum inhibitory concentration with respect to E. coli, P. aeruginosa, and S. epidermidis at a concentration given in μg/ml, and for percent hemolysis of human red blood cells as hereinabove described in Example 2. The minimum inhibitory concentration and percent hemolysis (at a concentration of 100 μg/ml) are listed below in Table I. As used herein, the heading "Amino Acid Residue Substituted" refers to the number of the amino acid residue in the peptide which is substituted with a desired amino acid residue. All other residues remain the same as that of the normal peptide sequence. The term "Minimum Inhibitory Concentration" (MIC) as used herein indicates the minimum concentration of peptide in μg/ml needed to achieve 100 percent effective growth inhibition of the organism.

[10] = tested on: Escherichia coli; settings: Table I; 100 percent growth inhibition, 20 hours, 1.0×10^6 CFU/ml, LB medium
Protocol: as §6, §7, §8, §9, §10

Substance	MIC E (E. coli) [1] [µg/mL]	MIC S (S. aureus) [2] [µg/mL]	MIC P (P. aeruginosa) [3]	Minimum Inhibitory Concentration P. Aeruginosa [4] [µg/mL]	Minimum Inhibitory Concentration S. epidermidis [5] [µg/mL]	Minimum Inhibitory Concentration E. coli [6] [µg/mL]	Minimum Inhibitory Concentration S. aureus [7] [µg/mL]	Minimum Inhibitory Concentration S. epidermidis [8] [µg/mL]	Minimum Inhibitory Concentration P. Aeruginosa [9] [µg/mL]	Minimum Inhibitory Concentration E. coli [10] [µg/mL]
LLKKLKKLLKKLLKLL-NH2 [(SEQ ID NO: 4) --NH2]	32	32	64 µg/mL							
Ac-KKLLKKLKKLLKKL-NH2 [X-(SEQ ID NO: 65) --NH2]	32	16	16 µg/mL and 32 µg/mL							
Ac-LLKKLKKLLKKLLKLL-NH2 [X-(SEQ ID NO: 4) --NH2]	32	32	64 µg/mL							
Ac-LKLLKKLLKKGKKLLKKL-NH2 [X-(SEQ ID NO: 68) --NH2]	16	8	8 µg/mL							
Ac-LKLLKKLLKKLKKLLKKL-NH2 [None (parent)]				75	2.5	10	128	2.5	75	10
Ac-LKKLLKKLKKLLKKL-NH2 [X-(SEQ ID NO: 66) --NH2]	8	8	16 µg/mL							
